Here are results for 39 compounds from ChEMBL document CHEMBL1759976, “Carbonic anhydrase inhibitors. Inhibition of the β-class enzymes from the fungal pathogens Candida albicans and Cryptococcus neoformans with branched aliphatic/aromatic carboxylates and their derivatives” (Bioorg Med Chem Lett, 2011).

A short description of assay [1]: Inhibition of Cryptococcus neoformans Can2 beta-carbonic anhydrase by stopped flow CO2 hydration assay.
Assay [2] in a line: Inhibition of Candida albicans Nce103 beta-carbonic anhydrase by stopped flow CO2 hydration assay.
The target of a further assay is Carbonic anhydrase 1 (Homo sapiens, UniProt P00915). Description: Inhibition of human cytosolic carbonic anhydrase 1 by stopped flow CO2 hydration assay.
Carbonic anhydrase 1, sequence (P00915 whole entry): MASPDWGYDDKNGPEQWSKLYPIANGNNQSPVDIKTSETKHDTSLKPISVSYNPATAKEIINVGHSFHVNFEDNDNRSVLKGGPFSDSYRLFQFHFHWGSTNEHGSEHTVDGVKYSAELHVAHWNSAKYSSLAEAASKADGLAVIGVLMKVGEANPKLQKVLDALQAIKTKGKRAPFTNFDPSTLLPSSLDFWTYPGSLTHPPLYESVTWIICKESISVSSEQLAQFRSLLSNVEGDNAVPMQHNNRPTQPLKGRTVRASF
A further assay deals with Carbonic anhydrase 2 (Homo sapiens, UniProt P00918).

pKi: −log10 of the molar value.

As for `CCCCC(CC)C(=O)O` (centres undefined), the pKi in assay [1] was 6.02; in assay [2] it was 4.37; on Carbonic anhydrase 1, 3.35; on Carbonic anhydrase 2, 4.03.

For the compound `CCCCC(C)C(=O)O` (centres undefined), the pKi in assay [1] is 5.49; in assay [2], 5.43; at Carbonic anhydrase 1, 3.42; at Carbonic anhydrase 2, 3.99.

As to `COc1ccc(C(=O)O)cc1`, the negative logarithm of the Ki (pKi) is 8.00 in assay [1], 6.82 in assay [2], 5.04 at Carbonic anhydrase 1 and 5.10 on Carbonic anhydrase 2.

On to `CC(=O)Nc1nnc(S(N)(=O)=O)s1` [ACETAZOLAMIDE], for which the pKi in assay [1] is 8.00; in assay [2], 6.89.

Compound `CCC(=O)[O-].[Na+]` [SODIUM PROPIONATE] showed a negative-log Ki (pKi) on Carbonic anhydrase 1 of 3.00.

Take `CCCC(=O)[O-].[Na+]` [SODIUM BUTYRATE]: the negative-log Ki (pKi) on Carbonic anhydrase 1 is 3.29.

For `CC(C)CC(=O)O` [SODIUM ISOVALERATE], the negative-log Ki (pKi) is 6.04 in assay [1], 6.02 in assay [2], 3.52 on Carbonic anhydrase 1 and 4.00 at Carbonic anhydrase 2.

In the case of `CCCC(C)C(=O)O` (centres undefined), the pKi in assay [1] is 4.99; in assay [2], 4.98; on Carbonic anhydrase 1, 3.51; at Carbonic anhydrase 2, 3.95.

Regarding `O=C(O)c1ccc(S(=O)(=O)N(Cl)Cl)cc1`, the negative-log Ki (pKi) was 6.92 in assay [1], 5.30 in assay [2], 5.41 at Carbonic anhydrase 1 and 5.71 at Carbonic anhydrase 2.

As to `CCC(C)CCC(=O)O` (centres undefined), the pKi in assay [1] is 6.10; in assay [2], 5.90; at Carbonic anhydrase 1, 3.38; at Carbonic anhydrase 2 it was 3.95.

Take `CC(C)C(=O)[O-].[Na+]` [SODIUM ISOBUTYRATE]: the pKi in assay [1] was 5.42; in assay [2] it was 6.01; at Carbonic anhydrase 1, 3.92; on Carbonic anhydrase 2, 3.46.

On Carbonic anhydrase 1, `O=C[O-].[Na+]` [SODIUM FORMATE] showed a negative-log Ki (pKi) of 2.98.

In the case of `Nc1cccc(C(=O)O)c1`, the negative logarithm of the Ki (pKi) is 5.51 in assay [1], 5.47 in assay [2], 5.06 at Carbonic anhydrase 1 and 5.06 on Carbonic anhydrase 2.

For `CCC(C)CC(=O)O` (centres undefined), the pKi in assay [1] is 4.46; in assay [2] it was 4.95; at Carbonic anhydrase 1 it was 3.98; on Carbonic anhydrase 2, 3.55.

On to `CCCCC(CC)C(=O)OC` (centres undefined), for which the pKi in assay [1] is 6.13; in assay [2], 5.25.

Take `CN(C)c1ccc(C(=O)O)cc1`: the pKi was 6.89 in assay [1], 5.28 in assay [2], 5.40 at Carbonic anhydrase 1 and 5.48 at Carbonic anhydrase 2.

Regarding `CCCCC(CC)C(=O)NN` (centres undefined), the pKi is 6.64 in assay [1] and 5.34 in assay [2].

`CC(C)CCC(=O)O`: the negative-log Ki (pKi) in assay [2] is 5.67.

Consider `O=C(O)c1ccc(I)cc1`, for which the pKi was 5.26 in assay [1] and 5.29 in assay [2].

With `COc1ccc(C(=O)NO)cc1`, the pKi is 7.15 in assay [1] and 6.33 in assay [2].

In turn, `CC(=O)[O-].[Na+]` [SODIUM ACETATE] showed a negative logarithm of the Ki (pKi) at Carbonic anhydrase 1 of 4.97.

`O=C(O)c1ccc(CCl)cc1`: the values for the negative-log Ki (pKi) in assay [1] and in assay [2] were 5.44 and 5.33, respectively.

In the case of `N#Cc1ccc(C(=O)O)cc1`, the results for the pKi in assay [1] and in assay [2] were 6.85 and 5.35, respectively.

As for `O=C(O)c1ccc(F)cc1`, the negative-log Ki (pKi) is 6.89 in assay [1], 5.96 in assay [2], 5.13 at Carbonic anhydrase 1 and 5.48 at Carbonic anhydrase 2.

Regarding `CCCCCCC(CCCC)C(=O)O` (centres undefined), the pKi was 4.97 in assay [2] and 4.00 on Carbonic anhydrase 1.

Turning to `CC(=O)Nc1ccc(C(=O)[O-])cc1.[Na+]`, the pKi in assay [1] was 6.49; in assay [2], 6.47; at Carbonic anhydrase 1 it was 5.39; on Carbonic anhydrase 2, 5.14.

In the case of `O=C(O)c1ccc(O)cc1`, the pKi in assay [1] is 8.02; in assay [2], 6.96; at Carbonic anhydrase 1 it was 5.12.

With `COc1ccc(C(=O)NN)cc1`, the negative logarithm of the Ki (pKi) in assay [1] was 7.06; in assay [2] it was 6.09; at Carbonic anhydrase 1, 5.11; on Carbonic anhydrase 2, 5.24.

Turning to `COC(=O)c1ccc(OC)cc1` [METHYL 4-METHOXYBENZOATE], the pKi in assay [1] was 7.17; in assay [2], 6.21.

For `Nc1ccc(C(=O)O)cc1` [AMINOBENZOATE SODIUM], the pKi is 6.92 in assay [1], 5.53 in assay [2], 5.08 at Carbonic anhydrase 1 and 5.09 on Carbonic anhydrase 2.

Regarding `COc1ccc(C(=O)O)cc1` [p-ANISIC ACID], the negative-log Ki (pKi) on Carbonic anhydrase 1 is 5.04; at Carbonic anhydrase 2, 5.10.

In turn, `CCCCC(=O)[O-].[Na+]` [SODIUM VALERATE] showed a negative logarithm of the Ki (pKi) at Carbonic anhydrase 1 of 4.26.

As for `CCCCC(CC)C(N)=O` (centres undefined), the negative-log Ki (pKi) in assay [1] was 6.41; in assay [2], 5.24.

Regarding `COc1ccc(C(N)=O)cc1`, the pKi in assay [1] is 7.21; in assay [2], 6.27; at Carbonic anhydrase 1 it was 5.36; at Carbonic anhydrase 2, 5.66.

Turning to `CCCCC(CC)C(=O)O` (centres undefined) [2-ETHYLHEXANOIC ACID], the pKi on Carbonic anhydrase 1 was 3.35; at Carbonic anhydrase 2 it was 4.03.

`O=C(O)c1ccc([N+](=O)[O-])cc1`: the pKi in assay [1] is 6.92; in assay [2], 5.31; on Carbonic anhydrase 1 it was 5.06; on Carbonic anhydrase 2, 5.07.

For `CCCCCC(C)C(=O)O` (centres undefined), the negative logarithm of the Ki (pKi) is 4.41 in assay [1], 4.93 in assay [2] and 3.96 at Carbonic anhydrase 2.

For the compound `CCCCC(CC)C(=O)NO` (centres undefined), the pKi in assay [1] is 6.54; in assay [2] it was 5.52.

As for `CCCCC(CC)CCC(=O)O` (centres undefined), the negative-log Ki (pKi) in assay [1] is 4.39; in assay [2] it was 4.42; on Carbonic anhydrase 1, 3.42.
